# Source: ChEMBL document CHEMBL3286114, “Dual RXR Agonists and RAR Antagonists Based on the Stilbene Retinoid Scaffold” (ACS Med Chem Lett, 2014)
# Active and inactive are the calls of the source. The calls are words filed in the database; no cut-off is given here.
# Experiments:
# Assay type in all cases: cell-based
# [1] = biological target: T1, Retinoic acid receptor beta (Mus musculus) (UniProt P22605); assay: Agonist activity at Gal4-fused mouse RAR-beta transfected in human HeLa cells at 10 uM after 12 hrs by luciferase reporter gene assay
# T1 sequence (whole entry): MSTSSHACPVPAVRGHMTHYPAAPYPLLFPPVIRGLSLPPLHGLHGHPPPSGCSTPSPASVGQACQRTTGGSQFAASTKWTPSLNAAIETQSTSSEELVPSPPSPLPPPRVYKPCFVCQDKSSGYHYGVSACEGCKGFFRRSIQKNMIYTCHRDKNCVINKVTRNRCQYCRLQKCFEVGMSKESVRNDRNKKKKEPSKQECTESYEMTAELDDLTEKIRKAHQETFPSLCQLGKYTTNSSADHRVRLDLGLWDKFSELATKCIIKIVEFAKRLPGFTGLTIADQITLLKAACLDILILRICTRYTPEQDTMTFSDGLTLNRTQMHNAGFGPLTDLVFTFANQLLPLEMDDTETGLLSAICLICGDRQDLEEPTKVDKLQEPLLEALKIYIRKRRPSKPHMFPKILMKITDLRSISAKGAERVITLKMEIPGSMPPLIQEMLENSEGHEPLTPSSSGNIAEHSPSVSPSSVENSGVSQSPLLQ
# [2] = biological target: T1, Retinoic acid receptor beta (Mus musculus); assay: Agonist activity at Gal4-fused mouse RAR-beta transfected in human HeLa cells at >1 uM after 12 hrs by luciferase reporter gene assay
# [3] = biological target: T2, Retinoic acid receptor alpha (Mus musculus) (UniProt P11416); assay: Agonist activity at Gal4-fused mouse RAR-alpha transfected in human HeLa cells after 12 hrs by luciferase reporter gene assay
# T2 sequence (whole entry): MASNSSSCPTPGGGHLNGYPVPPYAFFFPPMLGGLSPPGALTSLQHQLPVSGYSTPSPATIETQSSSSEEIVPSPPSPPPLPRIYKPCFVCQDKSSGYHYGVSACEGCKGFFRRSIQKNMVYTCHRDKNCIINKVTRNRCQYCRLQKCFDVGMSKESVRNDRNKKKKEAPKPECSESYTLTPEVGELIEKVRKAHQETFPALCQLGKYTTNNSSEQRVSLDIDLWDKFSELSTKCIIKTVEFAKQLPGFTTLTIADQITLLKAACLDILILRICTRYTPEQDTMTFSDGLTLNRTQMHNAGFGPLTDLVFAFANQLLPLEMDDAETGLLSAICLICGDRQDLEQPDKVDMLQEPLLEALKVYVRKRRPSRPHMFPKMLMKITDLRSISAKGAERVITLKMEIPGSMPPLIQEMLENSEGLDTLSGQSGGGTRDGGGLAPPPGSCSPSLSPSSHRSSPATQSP
# [4] = biological target: T3, Retinoic acid receptor gamma (Mus musculus) (UniProt P18911); assay: Agonist activity at Gal4-fused mouse RAR-gamma transfected in human HeLa cells at 10 uM after 12 hrs by luciferase reporter gene assay
# T3 sequence (whole entry): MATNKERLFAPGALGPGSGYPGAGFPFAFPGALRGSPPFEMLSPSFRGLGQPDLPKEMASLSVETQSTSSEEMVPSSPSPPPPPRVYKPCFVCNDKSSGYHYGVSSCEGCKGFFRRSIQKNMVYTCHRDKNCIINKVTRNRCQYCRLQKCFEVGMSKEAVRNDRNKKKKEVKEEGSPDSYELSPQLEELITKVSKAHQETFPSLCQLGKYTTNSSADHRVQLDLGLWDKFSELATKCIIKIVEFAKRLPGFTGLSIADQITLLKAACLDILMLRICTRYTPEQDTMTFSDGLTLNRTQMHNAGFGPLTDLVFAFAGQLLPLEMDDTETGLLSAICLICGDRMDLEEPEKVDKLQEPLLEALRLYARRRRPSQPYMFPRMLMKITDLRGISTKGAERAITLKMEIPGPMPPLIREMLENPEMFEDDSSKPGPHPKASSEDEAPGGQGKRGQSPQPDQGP
# [5] = biological target: T4, Retinoic acid receptor RXR-beta (Homo sapiens) (UniProt P28702); assay: Agonist activity at Gal4-fused human RXR-beta transfected in human HeLa cells at 875 nM after 12 hrs by luciferase reporter gene assay relative to control
# T4 sequence (whole entry): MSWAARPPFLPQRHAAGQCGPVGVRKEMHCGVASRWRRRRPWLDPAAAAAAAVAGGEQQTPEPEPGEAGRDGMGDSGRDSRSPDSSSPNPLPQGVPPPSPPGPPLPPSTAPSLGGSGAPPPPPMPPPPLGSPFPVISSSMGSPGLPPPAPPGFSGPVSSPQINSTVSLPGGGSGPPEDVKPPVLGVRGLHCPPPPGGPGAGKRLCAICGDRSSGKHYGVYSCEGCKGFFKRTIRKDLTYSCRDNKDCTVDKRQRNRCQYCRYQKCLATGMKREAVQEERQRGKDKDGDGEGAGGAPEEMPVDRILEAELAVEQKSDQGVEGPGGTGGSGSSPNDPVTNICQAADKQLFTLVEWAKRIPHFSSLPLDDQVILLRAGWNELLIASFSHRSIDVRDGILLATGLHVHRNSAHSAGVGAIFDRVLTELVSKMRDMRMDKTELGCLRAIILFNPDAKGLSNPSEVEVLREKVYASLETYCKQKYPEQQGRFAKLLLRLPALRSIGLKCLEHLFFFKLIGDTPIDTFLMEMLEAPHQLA
# [6] = biological target: T4, Retinoic acid receptor RXR-beta (Homo sapiens); assay: Agonist activity at Gal4-fused human RXR-beta transfected in human HeLa cells at 51 nM after 12 hrs by luciferase reporter gene assay relative to control
# [7] = biological target: T4, Retinoic acid receptor RXR-beta (Homo sapiens); assay: Agonist activity at Gal4-fused human RXR-beta transfected in human HeLa cells at 541 nM after 12 hrs by luciferase reporter gene assay relative to control
# [8] = biological target: T4, Retinoic acid receptor RXR-beta (Homo sapiens); assay: Agonist activity at Gal4-fused human RXR-beta transfected in human HeLa cells at 125 nM after 12 hrs by luciferase reporter gene assay relative to control
# [9] = biological target: T2, Retinoic acid receptor alpha (Mus musculus); assay: Antagonist activity at Gal4-fused mouse RAR-alpha transfected in human HeLa cells after 12 hrs by luciferase reporter gene assay
# [10] = biological target: T3, Retinoic acid receptor gamma (Mus musculus); assay: Antagonist activity at Gal4-fused mouse RAR-gamma transfected in human HeLa cells after 12 hrs by luciferase reporter gene assay
# [11] = biological target: T1, Retinoic acid receptor beta (Mus musculus); assay: Antagonist activity at Gal4-fused mouse RAR-beta transfected in human HeLa cells after 12 hrs by luciferase reporter gene assay
# [12] = biological target: T3, Retinoic acid receptor gamma (Mus musculus); assay: Agonist activity at Gal4-fused mouse RAR-gamma transfected in human HeLa cells at 1 uM after 12 hrs by luciferase reporter gene assay
# [13] = biological target: T4, Retinoic acid receptor RXR-beta (Homo sapiens); assay: Agonist activity at Gal4-fused human RXR-beta transfected in human HeLa cells after 12 hrs by luciferase reporter gene assay
# [14] = biological target: T1, Retinoic acid receptor beta (Mus musculus); assay: Agonist activity at Gal4-fused mouse RAR-beta transfected in human HeLa cells at 1 uM after 12 hrs by luciferase reporter gene assay
# [15] = biological target: T2, Retinoic acid receptor alpha (Mus musculus); assay: Agonist activity at Gal4-fused mouse RAR-alpha transfected in human HeLa cells at 1 uM after 12 hrs by luciferase reporter gene assay
SMILES,Activity [1],Activity [2],Activity [3],Activity [4],fold change (FC) [5],fold change (FC) [6],fold change (FC) [7],fold change (FC) [8],Activity [9],Activity [10],Activity [11],Activity [12],Activity [13],Activity [14],Activity [15]
O=C(O)c1ccc(NC(=O)c2ccc3c(-c4ccccc4)ccc(-c4ccccc4)c3c2)cc1,Active,Active,inactive,Active,–,–,–,–,–,–,–,–,–,–,–
C/C(=C\c1ccc(C(=O)O)cc1)c1ccc2c(c1)C(C)(C)CCC2(C)C,–,–,–,–,15,15,15,15,–,–,–,–,–,–,–
O=C(O)c1ccc(/C=C/c2ccc3c(-c4ccccc4)ccc(-c4ccccc4)c3c2)c(Br)c1,–,–,–,–,15,15,15,15,Active,Active,Active,inactive,Active,inactive,inactive
O=C(O)c1ccc(/C=C/c2ccc3c(-c4ccccc4)ccc(-c4ccccc4)c3c2)c(F)c1,–,–,–,–,15,15,15,15,Active,Active,Active,inactive,Active,inactive,inactive
O=C(O)c1ccc(NC(=O)c2ccc3c(-c4ccccc4)ccc(-c4ccccc4)c3c2)c(Cl)c1,Active,–,inactive,Active,–,–,–,–,–,–,–,–,–,–,–
O=C(O)c1ccc(NC(=O)c2ccc3c(-c4ccccc4)ccc(-c4ccccc4)c3c2)c(F)c1,Active,–,inactive,Active,–,–,–,–,–,–,–,–,–,–,–
O=C(O)c1ccc(/C=C/c2ccc3c(-c4ccccc4)ccc(-c4ccccc4)c3c2)cc1,–,–,–,–,15,15,15,15,Active,Active,Active,inactive,Active,inactive,inactive
